# In patent US9029366B2, “Substituted bicyclic alkoxy pyrazole analogs as allosteric modulators of mGluR5 receptors” (Vanderbilt University, priority 2012, dated 2015):
# Like-named read-outs stand apart in the source and are kept apart here.
# Molecular target: human mGluR5 (Homo sapiens, UniProt P41594)
# Assay: Cell-based functional Ca2+ mobilization assay (FDSS), potentiation of glutamate EC20 response, HEK293A cells transfected with human mGluR5a (H10H or H12H cell line)
# Conditions: in presence of glutamate EC20, ** = compound is an antagonist; for Emax (%) / Emax: % of maximal glutamate response; for Emax: HEK293-A
# Experimental: Human embryonic kidney (HEK) cells transfected with rat mGluR5 were plated in clear bottom assay plates for assay in a Functional Drug Screening System (FDSS). In the alternative assay, HEK cells transfected with human mGluR5 were plated for assay in the FDSS. In some cases the HEK cells transfected with human mGluR5 are the H10H cell line. Alternatively, the HEK cells transfected with human mGluR5 are the H12H cell line. […] The cells were loaded with a Ca^2+-sensitive fluorescent dye (e.g., Fluo-4), and the plates were washed and placed in the FDSS instrument. After establishment of a fluorescence baseline for about three seconds, the compounds of the present invention were added to the cells, and the response in cells was measured. Five minutes later, an mGluR5 agonist (e.g., glutamate, 3,5-dihydroxyphenylglycine, or quisqualate) was added to the cells, and the response of the cells was measured.
# The above described assay can be operated in two modes. In the first mode, a range of concentrations of the present compounds were added to cells, followed by a single fixed concentration of agonist. If a compound acted as a potentiator, an EC50 value for potentiation and a maximum extent of potentiation by the compound at this concentration of agonist was determined by non-linear curve fitting. In the second mode, several fixed concentrations of the present compounds were added to various wells on a plate, followed by a range of concentrations of agonist for each concentration of present compound; the EC50 values for the agonist at each concentration of compound were determined by non-linear curve fitting. A decrease in the EC50 value of the agonist with increasing concentrations of the present compounds (a leftward shift of the agonist concentration-response curve) is an indication of the degree of mGluR5 potentiation at a given concentration of the present compound. An increase in the EC50 value of the agonist with increasing concentrations of the present compounds (a rightward shift of the agonist concentration-response curve) is an indication of the degree of mGluR5 antagonism at a given concentration of the present compound. The second mode also indicates whether the present compounds also affect the maximum response to mGluR5 to agonists.
# Human mGluR5a cDNA in pCMV6-XL6 mammalian expression plasmid was purchased from OriGene Technologies, Inc. (catalogue number SC326357) and subcloned into pcDNA3.1(−). Human embryonic kidney (HEK)293A cells were then transfected with human mGluR5a pcDNA3.1(−) using LipofectAmine2000 (Invitrogen) and monoclones were selected and tested for functional response using a Ca^2+ mobilization assay. Monoclones were named for the species (“H” for human) plus the location on the plate (e.g. “10H”).
# HEK cells transfected with the human mGluR5a receptor (H10H or H12H cell line) were plated at 15,000 cells/well in clear-bottomed poly-D-lysine-coated assay plates (BD Falcon) in glutamate-glutamine-free growth medium and incubated overnight at 37° C. and 5% CO2. Cell-lines used were either the H10H or H12H cell-lines expressing the human mGluR5 receptor. The following day, the growth medium was removed and the cells were washed with assay buffer containing 1× Hank's balanced salt solution (Invitrogen, Carlsbad, Calif.), 20 mM HEPES, 2.5 mM probenecid, pH 7.4 and left with 20 μL of this reagent. Following this step, the cells were loaded with calcium indicator dye, fluo-4 AM, to a final concentration of 2 μM and incubated for 40-45 min at 37° C. The dye solution was removed and replaced with assay buffer. Cell plates were held for 10-15 min at room temperature and were then loaded into the Functional Drug Screening System 6000 (FDSS 6000, Hamamatsu, Japan).
# After establishment of a fluorescence baseline for about 3 seconds, the compounds of the present invention were added to the cells, and the response in cells was measured.
# [1] = H10H cell line expressing recombinant human mGluR5
# [2] = H10H cell line expressing recombinant human mGluR5, read-out: pEC50 (converted)
# human mGluR5, sequence (P41594 21-1180 isoform P41594-2 limits assumed): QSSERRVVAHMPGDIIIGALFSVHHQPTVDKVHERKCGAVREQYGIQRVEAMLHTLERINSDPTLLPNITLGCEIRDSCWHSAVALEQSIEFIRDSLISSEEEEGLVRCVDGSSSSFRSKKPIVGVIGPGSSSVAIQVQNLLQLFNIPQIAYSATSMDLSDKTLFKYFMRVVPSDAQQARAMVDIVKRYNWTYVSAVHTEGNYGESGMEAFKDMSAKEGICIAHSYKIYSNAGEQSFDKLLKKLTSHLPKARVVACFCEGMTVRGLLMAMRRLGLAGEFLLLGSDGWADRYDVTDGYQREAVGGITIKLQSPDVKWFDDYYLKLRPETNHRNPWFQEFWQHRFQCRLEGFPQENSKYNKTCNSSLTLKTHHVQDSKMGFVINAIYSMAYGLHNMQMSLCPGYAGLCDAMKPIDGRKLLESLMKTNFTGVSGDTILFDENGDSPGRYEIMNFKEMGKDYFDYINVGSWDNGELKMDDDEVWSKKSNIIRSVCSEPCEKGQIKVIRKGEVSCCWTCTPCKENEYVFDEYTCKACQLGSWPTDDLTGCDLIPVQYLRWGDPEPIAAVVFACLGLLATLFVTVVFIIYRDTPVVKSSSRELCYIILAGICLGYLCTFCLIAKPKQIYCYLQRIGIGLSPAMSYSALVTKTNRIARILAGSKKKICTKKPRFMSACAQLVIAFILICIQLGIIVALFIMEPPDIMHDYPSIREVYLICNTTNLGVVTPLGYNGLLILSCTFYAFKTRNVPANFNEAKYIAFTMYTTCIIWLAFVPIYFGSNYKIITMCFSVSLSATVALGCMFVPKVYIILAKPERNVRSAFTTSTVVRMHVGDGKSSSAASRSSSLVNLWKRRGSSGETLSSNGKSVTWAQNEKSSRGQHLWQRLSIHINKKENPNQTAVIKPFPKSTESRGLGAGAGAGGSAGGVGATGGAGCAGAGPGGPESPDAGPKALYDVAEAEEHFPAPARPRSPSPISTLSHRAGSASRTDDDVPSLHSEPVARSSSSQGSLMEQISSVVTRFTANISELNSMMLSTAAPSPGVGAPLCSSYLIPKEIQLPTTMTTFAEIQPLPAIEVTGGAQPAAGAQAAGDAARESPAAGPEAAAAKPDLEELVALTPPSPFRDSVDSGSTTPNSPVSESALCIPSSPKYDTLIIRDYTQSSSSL
Molecule,Emax (%) [1] [%],pEC50 [1],EC50 [2] [nM],Emax [1] [%],"EC50 (pEC50, H10H cell line expressing recombinant human mGluR5) [nM]"
"1-(2-(benzyloxy)-6,7-dihydropyrazolo[1,5-a]pyrazin-5(4H)-yl)-2-(tert-butylamino)ethanone [Example B24]",28,<4.52,–,–,–
CC(C)(C)NCC(=O)N1CCn2nc(OCc3ccccc3)cc2C1 [Example B25],–,–,> 30200,20,–
CC(C)(C)CCC(=O)N1CCn2nc(OCc3ccccc3)cc2C1 [Example B26],–,–,589,59,–
CCOCC(=O)N1CCn2nc(OCc3ccccc3)cc2C1 [Example B27],–,–,> 30200,17,–
O=C(c1ccc(F)c(C(F)(F)F)c1)N1CCn2nc(OCc3ccccc3)cc2C1 [Example B39],51,–,–,–,–
O=C(c1ccc(Cl)cc1)N1CCn2nc(OCc3ccccc3)cc2C1 [Example B40],–,–,269,46,–
O=C(c1ccccc1C(F)(F)F)N1CCn2nc(OCc3ccccc3)cc2C1 [Example B41],–,–,> 30200,25,–
O=C(c1ccc(Cl)c(Cl)c1)N1CCn2nc(OCc3ccccc3)cc2C1 [Example B42],–,–,1230,39,–
COc1ccc(C(=O)N2CCn3nc(OCc4ccccc4)cc3C2)cc1F [Example B45],–,–,> 30200,19,–
CCOc1ccccc1C(=O)N1CCn2nc(OCc3ccccc3)cc2C1 [Example B48],–,–,> 30200,13,–
O=C(c1ccc(F)c(F)c1)N1CCn2nc(OCc3ccccc3)cc2C1 [Example B49],–,–,692,57,–
O=C(c1n[nH]c2ccccc12)N1CCn2nc(OCc3ccccc3)cc2C1 [Example B53],–,–,117,69,–
O=C(c1ccco1)N1CCn2nc(OCc3ccccc3)cc2C1 [Example B55],–,–,–,55,324
O=C(c1cnc[nH]1)N1CCn2nc(OCc3ccccc3)cc2C1 [Example B58],–,–,> 30200,22,–
O=C(c1ccsc1)N1CCn2nc(OCc3ccccc3)cc2C1 [Example B60],–,–,275,61,–
O=C(c1ccccn1)N1CCn2nc(OCc3ccccc3)cc2C1 [Example B61],–,–,4270,46,–
O=C(c1cncc(F)c1)N1CCn2nc(OCc3ccccc3)cc2C1 [Example B63],–,–,2000,48,–
O=C(c1cccnc1)N1CCn2nc(OCc3ccccc3)cc2C1 [Example B64],–,–,> 10000,38,–
O=C(CC1CCCC1)N1CCn2nc(OCc3ccccc3)cc2C1 [Example B67],–,–,479,52,–
O=C(CCC(F)(F)F)N1CCn2nc(OCc3ccccc3)cc2C1 [Example B70],–,–,> 30200,25,–
CCC(C)C(=O)N1CCn2nc(OCc3ccccc3)cc2C1 (stereo not drawn) [Example B75],–,–,> 30200,27,–
"Cn1c(Cl)ccc1C(=O)N1CCn2nc(OCc3cccc(F)c3)cc2C1 [Example B80, (5-chloro-1-methyl-1H-pyrrol-2-yl)-[2-(3-fluoro-benzyloxy)-6,7-dihydro-4H-pyrazolo[1,5-a]pyrazin-5-yl]-methanone]",–,–,22.9,65,–
Cn1c(Cl)ccc1C(=O)N1CCn2nc(OCc3ccccc3)cc2C1 [Example B81],–,–,25.1,69,–
Cn1c(Cl)ccc1C(=O)N1CCCn2nc(OCc3ccccc3)cc2C1 [Example B90],–,–,47.9,74,–
Cn1ccc(C(=O)N2CCn3nc(OCc4cccc(F)c4)cc3C2)c1 [Example B92],–,–,537,52,–
Cn1cc(C(=O)N2CCn3nc(OCc4cccc(F)c4)cc3C2)cc1Cl [Example B93],–,–,347,65,–
CC(=O)N1CCn2nc(OCc3ccccc3)cc2C1 [Example B108],–,–,> 30200,28,–

# The next lines start with results.
Emax (%) [1] [%],pEC50 [1],EC50 [2] [nM],Emax [1] [%],Molecule,"EC50 (pEC50, H10H cell line expressing recombinant human mGluR5) [nM]"
–,–,166,68,"O=C(c1ccc(F)cc1)N1CCn2nc(OCc3ccccc3)cc2C1 [Example B1, 2-(benzyloxy)-5-[(4-fluorophenyl)carbonyl]-4,5,6,7-tetrahydropyrazolo[1,5-a]pyrazine]",–
–,–,813,62,C[C@@H]1Cn2nc(OCc3ccccc3)cc2CN1C(=O)c1ccc(F)cc1 [Example B7],–
–,–,631,53,CC(C)(C)OCC(=O)N1CCn2nc(OCc3ccccc3)cc2C1 [Example B21],–
–,–,3240,34,CC(C)OCC(=O)N1CCn2nc(OCc3ccccc3)cc2C1 [Example B23],–
–,–,> 10000,44,O=C(c1cnccn1)N1CCn2nc(OCc3ccccc3)cc2C1 [Example B37],–
–,–,70.8,51,O=C(c1cccc(Cl)c1)N1CCn2nc(OCc3ccccc3)cc2C1 [Example B43],–
–,–,95.5,33,O=C(c1ccccc1Cl)N1CCn2nc(OCc3ccccc3)cc2C1 [Example B44],–
–,–,> 30200,20,N#Cc1ccc(C(=O)N2CCn3nc(OCc4ccccc4)cc3C2)c(F)c1 [Example B46],–
–,–,110,25,O=C(c1cc(Cl)cc(Cl)c1)N1CCn2nc(OCc3ccccc3)cc2C1 [Example B47],–
–,–,141,55,O=C(c1ccccc1)N1CCn2nc(OCc3ccccc3)cc2C1 [Example B50],–
–,–,> 30200,26,O=C(c1ncccn1)N1CCn2nc(OCc3ccccc3)cc2C1 [Example B51],–
–,–,2000,71,O=C(c1cc[nH]n1)N1CCn2nc(OCc3ccccc3)cc2C1 [Example B52],–
–,–,> 30200,20,Cc1ccoc1C(=O)N1CCn2nc(OCc3ccccc3)cc2C1 [Example B54],–
–,–,562,49,Cc1ccc(C(=O)N2CCn3nc(OCc4ccccc4)cc3C2)o1 [Example B56],–
–,–,1230,39,O=C(c1ccc[nH]1)N1CCn2nc(OCc3ccccc3)cc2C1 [Example B57],–
–,–,166,71,O=C(c1c[nH]c2ccccc12)N1CCn2nc(OCc3ccccc3)cc2C1 [Example B59],–
–,–,1860,20,O=C(c1ccncc1)N1CCn2nc(OCc3ccccc3)cc2C1 [Example B62],–
–,–,> 10000,56,O=C(c1ncc(F)cc1F)N1CCn2nc(OCc3ccccc3)cc2C1 [Example B65],–
–,–,355,69,CC(C)(C)CC(=O)N1CCn2nc(OCc3ccccc3)cc2C1 [Example B68],–
–,–,> 30200,16,O=C(CC(F)(F)F)N1CCn2nc(OCc3ccccc3)cc2C1 [Example B69],–
–,–,2340,30,O=C(C1CC1c1ccccc1)N1CCn2nc(OCc3ccccc3)cc2C1 (stereo not drawn) [Example B71],–
–,–,3800,34,O=C(COCc1ccccc1)N1CCn2nc(OCc3ccccc3)cc2C1 [Example B72],–
–,–,1320,32,Cn1cc(C(=O)N2CCn3nc(OCc4cccc(F)c4)cc3C2)c2ccccc21 [Example B79],–
–,–,> 30200,15,CO[C@](C(=O)N1CCn2nc(OCc3ccccc3)cc2C1)(c1ccccc1)C(F)(F)F [Example B87],–
–,–,617,40,CN(C)c1cccc(C(=O)N2CCn3nc(OCc4ccccc4)cc3C2)n1 [Example B88],–
–,–,3630,69,C[C@H]1Cn2nc(OCc3ccccc3)cc2CN1C(=O)c1ccc(Cl)n1C [Example B91],–
